The first test concerns solid and hematological patient tumor samples. The test can be described thus: Relative effect on solid and hematological tumor samples (S/H ratio), FMCA. It is filed as cell-based, human. Conditions: n=98 patient samples; FIG. 2b. The source says:
(§1) Cell culture. Patient tumor samples (98) and preparations (4) of normal peripheral blood mononuclear cells (PBMC), detailed in Table 1, were used to determine the activity of VLX50 and, for comparison, six other cytotoxic drugs chosen to represent different mechanistic classes.
The tumor samples were obtained by bone marrow/peripheral blood sampling, routine surgery or diagnostic biopsy. Leukemic cells and PBMCs were isolated by 1.077 g ml-1 Ficoll-Paque centrifugation (Larsson et al., 1992). Tumor tissue from solid tumor samples was minced into small pieces and tumor cells were isolated by collagenase dispersion followed by Percoll density gradient centrifugation (Csoka et al., 1994). […] Cell viability was determined by trypan blue exclusion test and the proportion of tumor cells in the preparation was judged by inspection of May-Grunvald-Giemsa stained cytospin slides (FIG. 1a). […]
Fluorometric Microculture Cytotoxicity Assay. The Fluorometric Microculture Cytotoxicity Assay, FMCA, described in detail previously (Lindhagen et al., 2008), is based on measurement of fluorescence generated from hydrolysis of fluorescein diacetate (FDA) to fluorescein by cells with intact plasma membranes. […] Quality criteria for a successful assay included a mean coefficient of variation of less than 30% in the control and a fluorescence signal in control wells of more than 5 times the blank. […]
Regarding `N.N.[Cl][Pt][Cl]` [cisplatin, reference compound], the “S/H ratio (ratio between total response rates for solid and hematological samples)” value is 1.2.

A further test relates to cells from CLL and normal PBMC. Nature of the test: Tumor cell specificity: drug effect in CLL cells versus normal PBMC, FMCA. It is filed as cell-based, human. Conditions: PBMC n=4, CLL n=9; t-test, p<0.05; FIG. 2c.
From the text: as §1
The tumor samples were obtained by bone marrow/peripheral blood sampling, routine surgery or diagnostic biopsy. Leukemic cells and PBMCs were isolated by 1.077 g ml-1 Ficoll-Paque centrifugation (Larsson et al., 1992). Tumor tissue from solid tumor samples was minced into small pieces and tumor cells were isolated by collagenase dispersion followed by Percoll density gradient centrifugation (Csoka et al., 1994). The sampling of primary tumor cells was approved by the local ethics committee at Uppsala University Hospital. Cell viability was determined by trypan blue exclusion test and the proportion of tumor cells in the preparation was judged by inspection of May-Grunvald-Giemsa stained cytospin slides (FIG. 1a). All samples used in this study contained more than 70% tumor cells.
Fluorometric Microculture Cytotoxicity Assay. The Fluorometric Microculture Cytotoxicity Assay, FMCA, described in detail previously (Lindhagen et al., 2008), is based on measurement of fluorescence generated from hydrolysis of fluorescein diacetate (FDA) to fluorescein by cells with intact plasma membranes. Cells were seeded in the drug-prepared 384-well plates using the pipetting robot Precision 2000 (Bio-Tek Instruments Inc., Winooski, Vt.). The number of cells per well were 2500-5000. Two columns without drugs served as controls and one column with medium only served as blank. The plates were incubated for 72 h and then transferred to an integrated HTS SAIGAN Core System consisting of an ORCA robot (Beckman Coulter) with CO2 incubator (Cytomat 2C, Kendro, Sollentuna, Sweden), dispensor module (Multidrop 384, Titertek, Huntsville, Ala.), washer module (ELx 405, Bio-Tek Instruments Inc), delidding station, plate hotels, barcode reader (Beckman Coulter), liquid handler (Biomek 2000, Beckman Coulter) and a multipurpose reader (FLUOstar Optima, BMG Labtech GmbH, Offenburg, Germany) for automated FMCA. Quality criteria for a successful assay included a mean coefficient of variation of less than 30% in the control and a fluorescence signal in control wells of more than 5 times the blank.
Dose-response data were analyzed using calculated survival index values and the software program GraphPadPrism4 (GraphPad Software Inc., San Diego, Calif., USA). Data was processed using non-linear regression to a standard sigmoidal dose-response model to obtain IC50-values (inhibitory concentration 50%).
In FIG. 2a the response rates for VLX50 at 4 μM for the patient samples are listed according to diagnoses. […] Lung cancer, AML and CML had intermediate response rates. The relative effect of VLX50 and six standard cytotoxic drugs, in solid and hematological tumor samples, expressed as the S/H ratio, is shown in FIG. 2b. […] The results for the standard drugs are consistent with their main clinical use.
For `COc1cc([C@@H]2c3cc4c(cc3[C@@H](O[C@@H]3O[C@@H]5CO[C@@H](C)O[C@H]5[C@H](O)[C@H]3O)[C@H]3COC(=O)[C@H]23)OCO4)cc(OC)c1O` [etoposide], the “Activity in CLL compared with PBMC” value is “No difference”.

Consider `Nc1ccn([C@@H]2O[C@H](CO)[C@@H](O)[C@@H]2O)c(=O)n1` [cytarabin], for which the “Activity in CLL compared with PBMC” value is “significantly higher activity in PBMC than in CLL cells”.

Take `N[C@@H](Cc1ccc(N(CCCl)CCCl)cc1)C(=O)O` [melphalan]: the “Activity in CLL compared with PBMC” value is given as “significantly higher activity in PBMC than in CLL cells”.

With `CC[C@]1(O)C[C@H]2CN(CCc3c([nH]c4ccccc34)[C@@](C(=O)OC)(c3cc4c(cc3OC)N(C=O)[C@H]3[C@@](O)(C(=O)OC)[C@H](OC(C)=O)[C@]5(CC)C=CCN6CC[C@]43[C@@H]65)C2)C1` [vincristine], the “Activity in CLL compared with PBMC” value is “significantly more active in CLL than in PBMC”.

Take `N.N.[Cl][Pt][Cl]` [cisplatin, reference compound]: the “Activity in CLL compared with PBMC” value was “No difference”.

Turning to `COc1cccc2c1C(=O)c1c(O)c3c(c(O)c1C2=O)C[C@@](O)(C(=O)CO)C[C@@H]3O[C@H]1C[C@H](N)[C@H](O)[C@H](C)O1` [doxorubicin], the “Activity in CLL compared with PBMC” value was “No difference”.

The record behind these values is patent US20120309798A1, “Tumour Treatment Agents and Method” (Vivolux AB, priority 2009, published 2012).
